Measurements as given in patent US12227512B2, “Benzimidazoles and methods of using same” (priority 2019, dated 2025).
Like-named read-outs stand apart in the source and are kept apart here.

How the values were obtained:
[1] = Neutral Red (Toxicity) of the antiviral screening; settings: African green monkey
[2] = test system: c-Myc and n-Myc; experiment: Western blot for c-Myc and n-Myc in Huh7.5 cells; type: cell-based; settings: 2 μM compound, Western blotting
Procedure: Referring to FIG. 8, the ability of Isis-11 (racemic) to inhibit c-Myc and n-Myc was evaluated. Huh7.5 cells were treated with 2 μM compound or no compound as a control. The cells were lysed and harvested at the indicated times. Western blotting was performed using antibodies as shown after serial stripping. […] YB-1 is known to be part of a positive feedback loop with Myc and is also affected by Myc inhibition.

[3] = test system: Zika MR766; experiment: In vitro antiviral screening, Neutral Red (Cytopathic effect); settings: Vero 76; for SI50: Assay No. 3, Neutral Red (Cytopathic effect/Toxicity); for EC50: Zika virus
[4] = test system: Hedgehog signaling (Gli transcription factors); experiment: Hedgehog pathway inhibition, cell-based reporter sensitive to Shh ligand; settings: read-out: EC50, hedgehog inhibition potency
[5] = test system: Gli-1 and c-Myc; experiment: Western blot of Gli-1 and c-Myc in SUFU-KO-Light cells; type: cell-based; settings: 48 hours, immunoblotting
[6] = test system: Hedgehog signaling (Gli transcription factors); experiment: Hedgehog pathway inhibition, cell-based reporter derived from fibroblast SUFU knockouts; settings: read-out: EC50, hedgehog inhibition potency
[7] = test system: cap-dependent and Myc 5'-UTR cap-independent translation; experiment: Dual luciferase Myc 5' UTR translation reporter in Huh 7.5 cells; type: cell-based; settings: Renilla (5' cap) / firefly (Myc 5' UTR) luciferase
Source text: The dual luciferase plasmid construct described by Willis and co-workers was transfected into Huh 7.5 cells. The Renilla luciferase cistron is translated from a 5′ cap, then the Myc 5′ UTR is placed in front of firefly luciferase to evaluate cap-independent translation from the same mRNA. […] This assay is a proxy for c-Myc translation activity. See also Stoneley et al. (2000) Nucleic Acids Res. 28: 687-94.

[8] = test system: Dengue virus 2 New Guinea C; experiment: In vitro antiviral screening, Neutral Red (Cytopathic effect); settings: Huh7; for SI50: Neutral Red (Cytopathic effect/Toxicity); for EC50: Dengue virus, Neutral Red (Cytopathic effect)
[9] = Neutral Red (Toxicity) of the antiviral screening; settings: human
[10] = test system: CML CD34+ cells; experiment: Colony-forming assay, Chronic Myeloid Leukemia; settings: for CML CD34+ colony formation: 0 μM = 100
[11] = test system: Gli-luciferace activity in the SUFU-KO-light cells; experiment: SUFU-KO-Light assay, inhibition of Gli-luciferase activity; type: cell-based
Source text: IC50 SUFO-KO-Light values are for inhibition of Gli-luciferace activity in the SUFU-KO-light cells developed by the James Chen laboratory at Stanford University.

[12] = test system: Raji (Burkitt Lymphoma cell line); experiment: Raji cell viability / proliferation; settings: Homo sapiens, read-out: IC50, Raji cell proliferation
[13] = test system: Dengue virus 2 New Guinea C; experiment: In vitro antiviral screening, Visual (Virus yield reduction); settings: Huh7; for SI90: Visual (Virus yield reduction)/Neutral Red (Toxicity); for EC90: Dengue virus, Visual (Virus yield reduction)
[14] = test system: Zika MR766; experiment: as above; settings: Vero 76; for SI90: Assay No. 3, Visual (Virus yield reduction)/Neutral Red (Toxicity); for EC90: Zika virus
[15] = test system: Rift Valley Fever Virus (RVFV); settings: reported value; cited from earlier work
[16] = test system: MB002 cells; experiment: MTT assay, cell proliferation; type: cell-based; settings: MB002, MTT, dose for Fa=0.5 inhibition (50%)
[17] = test system: SUFU-KO-Light cells expressing Gli-luciferase; experiment: Dose-effect curves, dual-Glo luciferase, Compusyn; type: cell-based; settings: SUFU-KO-Light, Gli-luciferase, Fa=0.5
[18] = Huh-7, Control drug, Assay No. 1
[19] = Huh-7, Control drug, Assay No. 2
[20] = inhibition of Gli-luciferase activity, read-out: IC50 (μM) SUFU-KO-Light

CN(C)CCCn1c(N)nc2ccc3c(c21)CC(CN(C)C)O3 (racemic) [Isis-11]
CC50 [1]: 20000 nM | c-Myc and n-Myc protein [2]: inhibited at the protein level | SI50 [3]: 23 | EC50 [3]: 880 nM | EC50 [4]: ~100 nM | Gli-1 and c-Myc levels [5]: decrease both Gli-1 and c-Myc | EC50 [6]: ~100 nM | effect on cap-dependent and cap-independent translation [7]: inhibits both cap-dependent and cap-independent translation | SI50 ([8]; Assay No. 1): 3.8 | SI50 ([8]; Assay No. 2): 4.9 | EC50 ([8]; Huh-7, Assay No. 1): 1800 nM | EC50 ([8]; Huh-7, Assay No. 2): 490 nM | CC50 ([9]; CC50, Assay No. 1, Neutral Red (Cytopathic effect/Toxicity) line): 6900 nM | CC50 ([9]; CC50, Assay No. 1, Neutral Red (Toxicity), line of the virus yield reduction assay): 6900 nM | CC50 ([9]; CC50, Assay No. 2, Neutral Red (Cytopathic effect/Toxicity) line): 2400 nM | CC50 ([9]; CC50, Assay No. 2, Neutral Red (Toxicity), line of the virus yield reduction assay): 2400 nM | colony formation ([10]; 0.8 μM): completely inhibited | CML CD34+ colony formation ([10]; 14-290, 0.1 μM): 91.81 | CML CD34+ colony formation ([10]; 14-290, 0.2 μM): 19.40 | CML CD34+ colony formation ([10]; 14-290, 0.4 μM): 12.50 | CML CD34+ colony formation ([10]; 14-290, 0.8 μM): 0 | CML CD34+ colony formation ([10]; 14-290, 1.6 μM): 0 | CML CD34+ colony formation ([10]; 15-186, 0.1 μM): 87.06 | CML CD34+ colony formation ([10]; 15-186, 0.2 μM): 52.10 | CML CD34+ colony formation ([10]; 15-186, 0.4 μM): 38.81 | CML CD34+ colony formation ([10]; 15-186, 0.8 μM): 0 | CML CD34+ colony formation ([10]; 15-186, 1.6 μM): 0 | CML CD34+ colony formation ([10]; AVG, 0.1 μM): 89.44 | CML CD34+ colony formation ([10]; AVG, 0.2 μM): 35.75 | CML CD34+ colony formation ([10]; AVG, 0.4 μM): 25.66 | CML CD34+ colony formation ([10]; AVG, 0.8 μM): 0 | CML CD34+ colony formation ([10]; AVG, 1.6 μM): 0 | EC50 ([10]; read-out: EC50, CML CD34+ colony formation): ~150 nM | EC50 ([10]; read-out: EC50, inhibition of colony formation): ~150 nM | IC50 ([11]; read-out: IC50 (μM) SUFU-KO-Light, inhibition of Gli-luciferase activity): 0.2 µM | IC50 [12]: 500 nM | SI90 ([13]; Assay No. 1): 2.6 | SI90 ([13]; Assay No. 2): 6.3 | EC90 ([13]; Huh-7, Assay No. 1): 2700 nM | EC90 ([13]; Huh-7, Assay No. 2): 380 nM | SI90 [14]: 22 | EC90 [14]: 930 nM

Nc1ncnc2c([C@H]3N[C@@H](CO)[C@H](O)[C@@H]3O)c[nH]c12 [BCX4430]
EC50 [15]: 41600 nM

N.N.[Cl][Pt][Cl] [Cisplatin, reference compound]
IC50 ([16]; read-out: Dose Cis): 780 nM

O=c1cnn([C@@H]2O[C@H](CO)[C@@H](O)[C@H]2O)c(=O)[nH]1 [Compound 6-azauridine, 6-azauridine, reference compound]
CC50 ([1]; Vero 76 cells): 26.5 µg/mL | SI50 [3]: 40 | EC50 [3]: 0.66 µg/mL | SI50 ([8]; Assay No. 1): >19 | SI50 ([8]; Assay No. 2): 15 | EC50 [8, 18]: 5.3 µg/mL | EC50 [8, 19]: 1.8 µg/mL | CC50 ([9]; Huh7 cells, CC50, Control drug, Assay No. 1, Neutral Red (Cytopathic effect/Toxicity) line): > 100 µg/mL | CC50 ([9]; Huh7 cells, CC50, Control drug, Assay No. 1, Neutral Red (Toxicity), line of the virus yield reduction assay): > 100 µg/mL | CC50 ([9]; Huh7 cells, CC50, Control drug, Assay No. 2, Neutral Red (Cytopathic effect/Toxicity) line): 27 µg/mL | CC50 ([9]; Huh7 cells, CC50, Control drug, Assay No. 2, Neutral Red (Toxicity), line of the virus yield reduction assay): 27 µg/mL | SI90 ([13]; Assay No. 1): >10 | SI90 ([13]; Assay No. 2): 15 | EC90 [13, 18]: 10 µg/mL | EC90 [13, 19]: 1.8 µg/mL | SI90 [14]: 0 | EC90 [14]: > 26.5 µg/mL

CN(C)CC1COc2ccc3nc4n(c3c2C1)CC(CN(C)C)CN4 (stereo not drawn) [IBIS-560146]
IC50 [11, 20]: > 2 µM

CC(C)n1nc(-c2ccc3oc(N)nc3c2)c2c(N)ncnc21 [Ink-128, reference compound]
EC50 ([17]; read-out: EC50 as single agent): 6 nM | EC50 ([17]; unit from FIG. 15 legend, read-out: Dose Ink): 6.13 nM | IC50 ([16]; read-out: Dose Ink): 60 nM

CN(C)CCCn1c(N)nc2ccc(OCCN(C)C)cc21 [Isis-4]
IC50 [11, 20]: 10 µM

CN(C)CCCn1c(N)nc2ccc3c(c21)CC(CN(C)C)CO3 (stereo not drawn) [Isis-12]
IC50 [11, 20]: 1.5 µM

CN(C)CC1CNc2nc3ccc4c(c3n2C1)CC(CN(C)C)O4 (stereo not drawn) [Isis-075]
IC50 [11, 20]: 0.36 µM

Cc1sc2c(c1C)C(c1ccc(Cl)cc1)=N[C@@H](CC(=O)OC(C)(C)C)c1nnc(C)n1-2 [JQ1, reference compound]
Gli-1 and c-Myc levels [5]: decrease both Gli-1 and c-Myc
